Results from ChEMBL document CHEMBL2150933 (J Med Chem, 2012).

Columns and labels:
[1] = test system: MDA-MB-468; assay: Cytotoxicity against human MDA-MB-468 cells after 48 hrs by SRB assay; format: functional; details: MDA-MB-468, 48 h
[2] = Toxicity in iv dosed CD1 mouse administered as single dose; format: organism-based; details: in vivo
[3] = test system: EKVX; assay: Cytotoxicity against human EKVX cells after 48 hrs by SRB assay; format: functional
[4] = test system: HOP-62; assay: Cytotoxicity against human HOP62 cells after 48 hrs by SRB assay; format: functional; details: HOP-62, 48 h
[5] = test system: A549; assay: Cytotoxicity against human A549 cells after 48 hrs by SRB assay; format: functional; details: A549, 48 h, read-out: pGI50 (converted)
[6] = test system: RPMI-8226; assay: Cytotoxicity against human RPMI8226 cells after 48 hrs by SRB assay; format: functional; details: RPMI-8226, 48 h
[7] = test system: SR; assay: Cytotoxicity against human SR cells after 48 hrs by SRB assay; format: functional
[8] = test system: K562; assay: Cytotoxicity against human K562 cells after 48 hrs by SRB assay; format: functional; details: K562, 48 h
[9] = test system: MOLT-4; assay: Cytotoxicity against human MOLT4 cells after 48 hrs by SRB assay; format: functional; details: MOLT-4, 48 h
[10] = test system: CCRF-CEM; assay: Cytotoxicity against human CCRF-CEM cells after 48 hrs by SRB assay; format: functional
[11] = test system: HL-60; assay: Cytotoxicity against human HL60 cells after 48 hrs by SRB assay; format: functional; details: HL-60, 48 h
[12] = test system: BXPC-3; assay: Cytotoxicity against human BxPC3 cells after 72 hrs by MTT assay; format: functional; details: BXPC-3, 72 h
[13] = test system: COLO 205; assay: Cytotoxicity against human COLO205 cells after 72 hrs by MTT assay; format: functional; details: COLO 205, 72 h
[14] = test system: A549; assay: Cytotoxicity against human A549 cells after 72 hrs by MTT assay; format: functional; details: A549, 72 h
[15] = test system: HOP-92; assay: Cytotoxicity against human HOP92 cells after 48 hrs by SRB assay; format: functional; details: HOP-92, 48 h
[16] = test system: NCI-H226; assay: Cytotoxicity against human NCI-H226 cells after 48 hrs by SRB assay; format: functional; details: NCI-H226, 48 h
[17] = test system: NCI-H23; assay: Cytotoxicity against human NCI-H23 cells after 48 hrs by SRB assay; format: functional; details: NCI-H23, 48 h
[18] = test system: NCI-H460; assay: Cytotoxicity against human NCI-H460 cells after 48 hrs by SRB assay; format: functional; details: NCI-H460, 48 h
[19] = test system: NCI-H522; assay: Cytotoxicity against human NCI-H522 cells after 48 hrs by SRB assay; format: functional; details: NCI-H522, 48 h
[20] = test system: COLO 205; assay: Cytotoxicity against human COLO205 cells after 48 hrs by SRB assay; format: functional; details: COLO 205, 48 h
[21] = test system: HCC 2998; assay: Cytotoxicity against human HCC2998 cells after 48 hrs by SRB assay; format: functional; details: HCC 2998, 48 h
[22] = test system: HCT-116; assay: Cytotoxicity against human HCT116 cells after 48 hrs by SRB assay; format: functional; details: HCT-116, 48 h
[23] = test system: HCT-15; assay: Cytotoxicity against human HCT15 cells after 48 hrs by SRB assay; format: functional; details: HCT-15, 48 h
[24] = test system: HT-29; assay: Cytotoxicity against human HT-29 cells after 48 hrs by SRB assay; format: functional; details: HT-29, 48 h
[25] = test system: KM12; assay: Cytotoxicity against human KM12 cells after 48 hrs by SRB assay; format: functional; details: KM12, 48 h
[26] = test system: SW-620; assay: Cytotoxicity against human SW620 cells after 48 hrs by SRB assay; format: functional; details: SW-620, 48 h
[27] = test system: SF-268; assay: Cytotoxicity against human SF268 cells after 48 hrs by SRB assay; format: functional; details: SF-268, 48 h
[28] = test system: SF-295; assay: Cytotoxicity against human SF295 cells after 48 hrs by SRB assay; format: functional; details: SF-295, 48 h, read-out: pGI50 (converted)
[29] = test system: SF-539; assay: Cytotoxicity against human SF539 cells after 48 hrs by SRB assay; format: functional; details: SF-539, 48 h
[30] = test system: SNB-19; assay: Cytotoxicity against human SNB19 cells after 48 hrs by SRB assay; format: functional; details: SNB-19, 48 h
[31] = test system: SNB-75; assay: Cytotoxicity against human SNB75 cells after 48 hrs by SRB assay; format: functional; details: SNB-75, 48 h

Compound CO[C@H](C(=O)C(C)=O)[C@@H]1Cc2cc3cc(O[C@H]4C[C@@H](O[C@H]5C[C@@H](O)[C@H](O)[C@@H](C)O5)[C@H](O)[C@@H](C)O4)c(C)c(O)c3c(O)c2C(=O)[C@H]1O[C@H]1C[C@@H](O[C@H]2C[C@@H](O[C@H]3C[C@H](O)[C@H](O)[C@@H](C)O3)[C@H](O)[C@@H](C)O2)[C@H](O)[C@@H](C)O1 has a GI50 [1] of 23.4 nM, an MTD [2] of 4 mg/kg and a GI50 [3] of 91.2 nM. It also gave a GI50 [4] of 16.6 nM, a GI50 [5] of 24.6 nM and a GI50 [6] of 15.8 nM. For the same compound, the GI50 [7] was 11.8 nM, the GI50 [8] was 19.5 nM and the GI50 [9] was 27.5 nM. The GI50 [10] was 24 nM, the GI50 [11] was 17.4 nM and the GI50 [12] was 300 nM. The GI50 [13] was 300 nM, the GI50 [14] was 300 nM and the GI50 [15] was 19.9 nM. For the same compound, the GI50 [16] was 34.7 nM, the GI50 [17] was 14.8 nM and the GI50 [18] was 17.8 nM. The GI50 [19] was 19.9 nM, the GI50 ([20]; read-out: GI50) was 32 nM and the GI50 ([20]; read-out: pGI50 (converted)) was 30.2 nM. The GI50 [21] was 12.9 nM, the GI50 [22] was 14.8 nM and the GI50 [23] was 182 nM. For the same compound, the GI50 [24] was 24.6 nM, the GI50 [25] was 12.9 nM and the GI50 [26] was 24 nM. For the same compound, the GI50 [27] was 18.6 nM, the GI50 [28] was 17 nM and the GI50 [29] was 20.9 nM. For the same compound, the GI50 [30] was 17 nM and the GI50 [31] was 11 nM.
